Measured values as given in patent US11230538B2, “Herbicides” (SYNGENTA PARTICIPATIONS AG, priority 2016, dated 2022).

What was measured:
Type in all cases: in vivo
[1] = test system: Alopecurus myosuroides (ALOMY); assay: B1 Pre-emergence herbicidal activity; parameters: key: 5=total damage to plant; 0=no damage to plant; conditions: pre-emergence application, rate 1000 g/ha, evaluated after 13 days
Procedure, shortened: (§1)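 Damage was rated 13 days after treatment, from 0 for none to 5 for total. The spray, in acetone/water 50:50 with 0.5% Tween 20, was applied pre-emergence, one day after seeds were sown in soil. Plants grew under glasshouse control at 24/16 °C, 14 h light, 65% humidity.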

[2] = test system: Avena fatua (AVEFA); assay: B1 Pre-emergence herbicidal activity; parameters: key: 5=total damage to plant; 0=no damage to plant; conditions: pre-emergence application, rate 1000 g/ha, evaluated after 13 days
Procedure, shortened: as §1

[3] = test system: Triticum aestivium (TRZAW); assay: B1 Pre-emergence herbicidal activity; parameters: key: 5=total damage to plant; 0=no damage to plant; conditions: pre-emergence application, rate 1000 g/ha, evaluated after 13 days
Procedure, shortened: as §1

[4] = test system: Echinochloa crus-galli (ECHCG); assay: B1 Pre-emergence herbicidal activity; conditions: pre-emergence application, rate 1000 g/ha, evaluated after 13 days
Procedure, shortened: as §1

[5] = test system: Lolium perenne (LOLPE); assay: B1 Pre-emergence herbicidal activity; parameters: key to Pre-emergence herbicidal activity, LOLPE (damage score 0-5): 5=total damage to plant; 0=no damage to plant; conditions: pre-emergence application, rate 1000 g/ha, evaluated after 13 days
Procedure, shortened: as §1

[6] = test system: Setaria fabenr (SETFA); assay: B1 Pre-emergence herbicidal activity; parameters: key to Pre-emergence herbicidal activity, SETFA (damage score 0-5): 5=total damage to plant; 0=no damage to plant; conditions: pre-emergence application, rate 1000 g/ha, evaluated after 13 days
Procedure, shortened: as §1

[7] = test system: Avena fatua (AVEFA); assay: B2 Post-emergence herbicidal activity; conditions: post-emergence application, rate 1000 g/ha, evaluated after 13 days
Procedure, shortened: (§2)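 Injury was rated 13 days after treatment from 0 (no damage) to 5 (total damage). The spray, applied 8 days after sowing, was an aqueous solution of the active ingredient from an acetone/water (50:50) formulation with 0.5% Tween 20. Plants were kept at 24/16° C, 14 h light, 65% humidity.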

[8] = test system: Echinochloa crus-galli (ECHCG); assay: B2 Post-emergence herbicidal activity; parameters: key to Post-emergence herbicidal activity, ECHCG (damage score 0-5): 5=total damage to plant; 0=no damage to plant; conditions: post-emergence application, rate 1000 g/ha, evaluated after 13 days
Procedure, shortened: as §2

[9] = test system: Lolium perenne (LOLPE); assay: B2 Post-emergence herbicidal activity; conditions: post-emergence application, rate 1000 g/ha, evaluated after 13 days
Procedure, shortened: as §2

[10] = test system: Alopecurus myosuroides (ALOMY); assay: B2 Post-emergence herbicidal activity; parameters: key: 5=total damage to plant; 0=no damage to plant; conditions: post-emergence application, rate 1000 g/ha, evaluated after 13 days
Procedure, shortened: as §2

[11] = test system: Setaria fabenri (SETFA); assay: B2 Post-emergence herbicidal activity; parameters: key: 5=total damage to plant; 0=no damage to plant; conditions: post-emergence application, rate 1000 g/ha, evaluated after 13 days
Procedure, shortened: as §2

[12] = test system: Triticum aestivium (TRZAW); assay: B2 Post-emergence herbicidal activity; parameters: key: 5=total damage to plant; 0=no damage to plant; conditions: post-emergence application, rate 1000 g/ha, evaluated after 13 days
Procedure, shortened: as §2

| SMILES | Pre-emergence herbicidal activity, ALOMY (damage score 0-5) [1] | Pre-emergence herbicidal activity, AVEFA (damage score 0-5) [2] | Pre-emergence herbicidal activity, TRAZW (damage score 0-5) [3] | Pre-emergence herbicidal activity, ECHCG (damage score 0-5) [4] | Pre-emergence herbicidal activity, LOLPE (damage score 0-5) [5] | Pre-emergence herbicidal activity, SETFA (damage score 0-5) [6] | Post-emergence herbicidal activity, AVEFA (damage score 0-5) [7] | Post-emergence herbicidal activity, ECHCG (damage score 0-5) [8] | Post-emergence herbicidal activity, LOLPE (damage score 0-5) [9] | Post-emergence herbicidal activity, ALOMY (damage score 0-5) [10] | Post-emergence herbicidal activity, SETFA (damage score 0-5) [11] | Post-emergence herbicidal activity, TRAZW (damage score 0-5) [12] |
| --- | --- | --- | --- | --- | --- | --- | --- | --- | --- | --- | --- | --- |
| C#CCN(C(=O)C(C)C)c1ccc(-c2cncc(F)c2)nc1C(F)(F)F [Compound C61] | 0 | 1 | 0 | 3 | 0 | 5 | 2 | 4 | 2 | 1 | 4 | 0 |
| CCC(=O)N(CCC(F)F)c1ccc(-c2cncc(F)c2)nc1C(F)(F)F [Compound C62] | 0 | 2 | 0 | 3 | 1 | 4 | 4 | 5 | 2 | 1 | 5 | 1 |
| C=CCN(C(=O)COC)c1ccc(-c2cncc(F)c2)nc1C(F)(F)F [Compound C63] | 0 | 0 | 0 | 2 | 1 | 4 | 2 | 4 | 2 | 1 | 4 | 0 |
| O=C(Nc1ccc(-c2cncnc2)nc1C(F)(F)F)C(Cl)Cl [Compound C65] | 0 | 3 | 0 | 4 | 2 | 3 | 4 | 5 | 3 | 0 | 5 | 0 |
| O=C1CCC(=O)N1c1ccc(-c2cncc(F)c2)nc1C(F)(F)F [Compound C67, 1-[6-(5-fluoro-3-pyridyl)-2-(trifluoromethyl)-3-pyridyl]pyrrolidine-2,5-dione] | 0 | 0 | 0 | 1 | 0 | 2 | 2 | 4 | 2 | 0 | 4 | 0 |
| CCC(=O)N(Cc1ccncc1)c1ccc(-c2cncc(F)c2)nc1C(F)(F)F [Compound C70] | 0 | 1 | 0 | 2 | 1 | 2 | 2 | 2 | 1 | 0 | 3 | 0 |
| COCC(=O)N(CC1CC1)c1ccc(-c2cncc(F)c2)nc1C(F)(F)F [Compound C80] | 0 | 1 | 0 | 2 | 0 | 3 | 2 | 3 | 1 | 1 | 5 | 1 |
| COCCN(C(=O)C(C)C)c1ccc(-c2cncc(F)c2)nc1C(F)(F)F [Compound C85] | 0 | 0 | 0 | 2 | 0 | 2 | 2 | 4 | 1 | 0 | 4 | 1 |
| CSCCN(C(=O)C(C)C)c1ccc(-c2cncc(F)c2)nc1C(F)(F)F [Compound C88] | 0 | 0 | 0 | 1 | 0 | 2 | 1 | 1 | 1 | 1 | 2 | 1 |
| CC(C)C(=O)N(c1ccc(-c2cncc(F)c2)nc1C(F)(F)F)C(C)C [Compound C90] | 0 | 0 | 0 | 2 | 0 | 2 | 2 | 4 | 1 | 0 | 4 | 1 |
